{"source": "patent US9987294B2", "about": "“Mitochondria-targeted anti-tumor agents” (University of Massachusetts, priority 2007, dated 2018)", "key": {"HeLa cell mitochondria": {"tested_on": "HeLa cell mitochondria", "experiment": "Cytochrome c and Smac release from isolated tumor mitochondria (Western blotting)", "type": "biochemical, human", "description": "Tumor cell types were treated with controls or the various Hsp90 antagonists, and cytosolic extracts were harvested at increasing time intervals between 5-30 minutes and analyzed by Western blotting. For experiments in a cell-free system, purified mitochondria (20 μg) were suspended in 500 μl of SB buffer (0.2 M sucrose, 10 mM Tris-MOPS, pH 7.4, 5 mM succinate, 1 mM sodium phosphate, 10 μM EGTA-Tris, and 2 μM rotenone). Samples were treated with controls or the various Hsp90 antagonists for 20 minutes at 22° C. At the end of each incubation reaction, mitochondria and supernatants were separated by centrifugation at 6,000×g for 10 minutes, and analyzed by Western blotting."}, "Raji cells": {"tested_on": "Raji cells", "experiment": "Mitochondrial membrane potential in JC-1-loaded cells (flow cytometry)", "type": "cell-based, human", "conditions": "within five minutes of addition", "description": "Raji cells were treated with Shepherdin or control scrambled peptidomimetic (100 μM) or 17-AAG (5 μM), loaded with the mitochondrial membrane potential-sensitive fluorescent dye JC-1, and analyzed for changes in green/red fluorescence ratio by flow cytometry. For experiments in a cell-free system, purified mitochondria isolated from primary normal cells, various tumor cells types, or normal mouse organs were suspended in SB buffer. […] For these experiments, TMRM-loaded mitochondria in SB buffer were allowed to reach stable fluorescence, which was set as fully polarized state (maximum membrane potential). The fluorescence intensity after treatment with 2 mM CaCl2 was set as minimum membrane potential (fully depolarized state). Changes in fluorescence intensity after each treatment were plotted as a ratio between maximum and minimum membrane potential."}, "HeLa cells": {"tested_on": "HeLa cells", "experiment": "Cytochrome c release into the cytosol of treated tumor cells (Western blotting)", "type": "cell-based, human"}, "tumor cells": {"tested_on": "tumor cells", "experiment": "Cell viability by MTT, tumor cell types", "type": "cell-based"}, "[1]": {"tested_on": "Akt, Chk1 and Hsp70 in HeLa cells", "experiment": "Hsp90 client protein and Hsp70 levels in treated cells (Western blotting)", "type": "cell-based, human", "conditions": "5 μM for 24 hours", "description": "In other experiments, chaperone-dependent GST-Chk1 reconstitution was determined as described previously (Arlander et al., “Chaperoning checkpoint kinase 1 (Chk1), an Hsp90 client, with purified chaperones,” J Biol Chem, 281:2989-2998 (2006)). Briefly, each sample contained 0.7 μg of resin-bound GST-Chk1 (residues 1-265), 1 μg of purified human Hsp90α, and the following amounts of other purified chaperone proteins: 10 μg Hsp70, 2 μg Hdj1, 2 μg p50^cdc37, 0.06 units CK2, 2.5 μg p60^Hop. Optical densities due to Chk1-dependent phosphorylation of Cdc25 in the presence and absence of Gamitrinib or 17-AAG were determined and plotted as fold activation above the sample lacking added chaperone proteins. In some experiments, HeLa cells were treated with Gamitrinibs (G1-G4) or 17-AAG (5 μM) for 24 hours, and isolated extracts were analyzed for modulation of Akt or Hsp70 expression, by Western blotting"}, "[2]": {"tested_on": "isolated tumor mitochondria", "experiment": "Inner membrane potential of TMRM-loaded tumor mitochondria", "type": "biochemical", "description": "(§1) The fluorescence intensity after treatment with 2 mM CaCl2 corresponded to a fully depolarized state. Alternatively, H460 cells were labeled with the fluorescent dye JC-1 (Molecular Probes), and analyzed for changes in red/green (F1-2/F1-1) fluorescence ratio after treatment with the various agents, by multiparametric flow cytometry. Cytochrome c content in pellets or supernatants of drug-treated isolated mitochondria was determined by Western blotting."}, "tumor mitochondria": {"tested_on": "tumor mitochondria", "experiment": "Cytochrome c release from drug-treated isolated tumor mitochondria", "type": "biochemical", "description": "Tumor cell types were treated with controls or the various Hsp90 antagonists, and cytosolic extracts were harvested at increasing time intervals between 5-30 minutes and analyzed by Western blotting. For experiments in a cell-free system, purified mitochondria (20 μg) were suspended in 500 μl of SB buffer (0.2 M sucrose, 10 mM Tris-MOPS, pH 7.4, 5 mM succinate, 1 mM sodium phosphate, 10 μM EGTA-Tris, and 2 μM rotenone). […] At the end of each incubation reaction, mitochondria and supernatants were separated by centrifugation at 6,000×g for 10 minutes, and analyzed by Western blotting.\nas §1"}, "[3]": {"tested_on": "lung adenocarcinoma H460 cells", "experiment": "Cell viability by MTT, H460", "type": "cell-based, human", "description": "(§2) Modulation of cell viability was determined by MTT (Kang et al., “Regulation of tumor cell mitochondrial homeostasis by an organelle-specific Hsp90 chaperone network,” Cell, 131:257-270 (2007)). For determination of apoptosis, cells were analyzed for caspase activity (DEVDase activity) and plasma membrane integrity (propidium iodide) using CaspaTag (Intergen, Burlington, Mass.), by multiparametric flow cytometry (Kang et al., “Regulation of tumor cell mitochondrial homeostasis by an organelle-specific Hsp90 chaperone network,” Cell, 131:257-270 (2007))."}, "[4]": {"tested_on": "breast adenocarcinoma SKBr3 cells", "experiment": "Metabolic activity by MTT, SKBr3", "type": "cell-based", "conditions": "10 μM; by 48 hours and throughout a 96-hours interval", "description": "as §2"}, "SKBr3 cells": {"tested_on": "SKBr3 cells", "experiment": "Dead cells by Trypan blue staining, SKBr3", "type": "cell-based", "conditions": "10 μM"}, "[5]": {"tested_on": "H460 lung adenocarcinoma xenograft tumors", "experiment": "Xenograft tumor growth, H460", "type": "in vivo, mice", "conditions": "i.p.; G4 and 17-AAG 2-3 mg/kg twice daily, G1 30-50 mg/Kg daily, TPP 10 mg/Kg daily", "description": "To create the models used in this example, HL60 (10×10^6) or H460 (4×10^6) cells suspended in sterile PBS (200 μl) were injected subcutaneously into both flanks of 10 week-old CB17 SCID/beige (Taconic Farms) immunocompromised female mice. Alternatively, MDA-MB-231 cells (5×10^6) suspended in 200 μl of 50% Matrigel (BD Biosciences) were used for subcutaneous injection in CB17 SCID/beige mice. When superficial tumors reached volumes of 100-150 mm^3, animals were randomized in two groups (2 tumors/mouse, 3 animals/group), and treated with vehicle (DMSO) or Gamitrinib dissolved in 20% Cremophor EL (Sigma) in PBS by intraperitoneal (i.p.) injection. Gamitrinib-G4 was used as sterile i.p. injections with the following schedules: HL60 xenografts, 2 mg/Kg twice daily; H460 xenografts, 2 mg/kg twice daily for d 0, 2.5 mg/kg twice daily for d 1, 3.0 mg/kg twice daily for the duration of treatment; MDA-MB-231 xenografts, 2 mg/Kg twice daily for d 0-2, 2.5 mg/Kg twice daily for d 3-5, and 3 mg/Kg twice daily throughout the rest of the treatment. 17-AAG was dissolved in 20% Cremophor EL and used as systemic i.p. injections with the same dose-escalating regimen as Gamitrinib-G4 in H460 xenograft studies. Gamitrinib-G1 was used with following schedules: 30 mg/Kg daily (d 0-2), and 50 mg/Kg daily for the rest of treatment. Gamitrinib-TPP was used as i.p. injections at 10 mg/Kg daily throughout the duration of the experiment. Tumor measurements were taken daily with a caliper, and tumor volume was calculated with the formula ([length in millimeters]×[width in millimeters]^2)/2. Mice in the various treatment groups were weighed at the beginning and at the end of each experiment."}}, "note": "“Also recorded” adds a separate entry of the source."}
{"smiles": "C=CCNC1=C2C[C@@H](C)C[C@H](OC)[C@H](O)[C@@H](C)/C=C(\\C)[C@H](OC(N)=O)[C@@H](OC)/C=C\\C=C(/C)C(=O)NC(=CC1=O)C2=O", "note": "[Gamitrinib 17-AAG, 17-allylamino-demethoxygeldamycin]", "values": [{"measurement": "cytochrome c or Smac release from isolated tumor mitochondria", "setting": "HeLa cell mitochondria; HeLa cell mitochondria", "value": "did not induce cytochrome c or Smac release; also recorded: had no effect on mitochondrial integrity"}, {"measurement": "discharge of mitochondrial cytochrome c and Smac in the supernatant", "setting": "HeLa cell mitochondria; high concentrations (20 μM)", "value": "a small discharge of mitochondrial cytochrome c, but not Smac"}, {"measurement": "mitochondrial membrane potential in tumor cells", "setting": "Raji cells", "value": "did not affect mitochondrial membrane potential in HeLa cells"}, {"measurement": "cytochrome c release into the cytosol", "setting": "HeLa cells", "value": "had no effect on cytochrome c release over a wide range of concentrations"}, {"measurement": "tumor cell viability / killing", "setting": "tumor cells; 1 hour exposure, MTT", "value": "had no effect on tumor cell viability within the same kinetics"}, {"measurement": "tumor cell killing", "setting": "tumor cells; prolonged exposure, 24 hours after treatment", "value": "partial cell killing; also recorded: modest anticancer activity"}, {"measurement": "expression of the chaperone Hsp70", "setting": "[1]", "value": "increased expression of the chaperone Hsp70"}, {"measurement": "levels of client proteins Chk1 and Akt", "setting": "[1]", "value": "destabilization of client proteins, Chk1 and Akt"}, {"measurement": "mitochondrial inner membrane potential", "setting": "[2]", "value": "did not affect mitochondrial membrane potential"}, {"measurement": "discharge of mitochondrial cytochrome c", "setting": "tumor mitochondria; 20 minutes", "value": "ineffective"}, {"measurement": "cytochrome c release from mitochondria", "setting": "tumor mitochondria; 3 hours (FIG. 16D)", "value": "had no effect on cytochrome c release"}, {"measurement": "cell viability", "setting": "[3]; 3 hour exposure", "value": "had no effect"}, {"measurement": "cell viability", "setting": "[3]; 24 hours", "value": "partial reduction in cell viability or cell proliferation"}, {"measurement": "metabolic activity", "setting": "[4]", "value": "comparably reduced metabolic activity"}, {"measurement": "tumor cell killing (dead cells)", "setting": "SKBr3 cells", "value": "most SKBr3 cells treated with 17-AAG were still alive after 72 hours"}, {"measurement": "tumor growth", "setting": "[5]", "value": "had no effect on human lung cancer growth in mice"}]}
